Tests used:
M5076 = assay: Soft agar colony formation disk diffusion assay; type: cell-based, murine
Description: (§1) A more elaborate version of this fundamental assay, the soft agar colony formation disk diffusion assay was used. This assay defines the relative activity of one particular drug versus a tumoral cell line type. The effect of the test drug against tumoral cells could be measured by its inhibitory capacity against colony formation after the delivery of the compound, in different concentrations on an filter disk(4). A modified technique of this assay was used in order to investigate the antiproliferative activity of candidate compounds. Tumoral cells from solid tumors and ascitic lines were plated separately in a two layer agar matrix. Cell lines to be tested were suspended in an upper layer of 0.4% Noble agar (Difco#00142-01) in RPMI-1066 (Gibco#3201875) at a yield varying between 10^4 to 2×10^5 cells per 60 mm Petri dish. Plating efficiency was determined for each line in order to achieve an optimal number of colonies per dish. Plates were examined before drug administration to confirm a uniform dispersion of single cells. The bottom layer consisted of 0.8% Noble agar, 0.8% Tryptic Soy Broth (difco#0037001)in CMRL-1066/Fischer's. The bottom layers were used within 2 and 9 days of preparation. Plated dishes (bottom layer of agar, upper layer of cells and administered drug were incubated in humidified atmosphere at 37° C., 5% CO2 for 10-20 days depending upon the time necessary to observe adequate colonies (defined as a cell aggregate of more than 50 cells) both control and drug inhibited. Drugs were administered on a paper filter disk (Whatman No. 1) of 6.5 mm diameter placed on the upper layer at 1/3 distance from the edge of the dish. The anti-clonogenic activity of the compounds was measured as the zone of inhibition from the disk edge to the most proximal colonies. This zone of inhibition was checked on an inverted microscope (40×) and was measured with a micrometer mounted in the eyepiece. The ocular micrometer was calibrated with a stage micrometer set for a particular combination of ocular and objective lenses. […] We made a modification of the initial technique by not plating a solid tumor and a leukemia simultaneously in the same Petri dish. Anti-clonogenic tests performed on leukemia cell line have helped in the discovery of the majority of current clinically used cytostatic drugs. Our tests on solid tumor lines (animal or human) may help define active compounds with solid tumor specificity. […] Murine tumors were maintained IN VIVO in order to diminish the selection of subpopulations of cells normally present in the heterogenous IN VIVO tumor. The actual drug sensitivity assay was done IN VITRO. For these experiments cells from freshly excised tumors or from ascitic fluids were maintained in RPMI-1066. Both compounds were dissolved in DMSO (1 mg/100 ul) and brought to final volume (250 ul) with Millipore deionized sterile water. Further dilutions were made with […] volume of 25 ul of freshly prepared solution was placed on the filter disk and allowed to dry.

P388 = assay: Soft agar colony formation disk diffusion assay; type: cell-based, murine
Description: as §1

P388/ADR = assay: Soft agar colony formation disk diffusion assay; type: cell-based, murine
Description: as §1

B16 = assay: Soft agar colony formation disk diffusion assay; type: cell-based, murine
Description: as §1

HT29 = assay: Soft agar colony formation disk diffusion assay; type: cell-based, human
Description: A more elaborate version of this fundamental assay, the soft agar colony formation disk diffusion assay was used. […] The effect of the test drug against tumoral cells could be measured by its inhibitory capacity against colony formation after the delivery of the compound, in different concentrations on an filter disk(4). A modified technique of this assay was used in order to investigate the antiproliferative activity of candidate compounds. Tumoral cells from solid tumors and ascitic lines were plated separately in a two layer agar matrix. Cell lines to be tested were suspended in an upper layer of 0.4% Noble agar (Difco#00142-01) in RPMI-1066 (Gibco#3201875) at a yield varying between 10^4 to 2×10^5 cells per 60 mm Petri dish. Plating efficiency was determined for each line in order to achieve an optimal number of colonies per dish. […] The bottom layer consisted of 0.8% Noble agar, 0.8% Tryptic Soy Broth (difco#0037001)in CMRL-1066/Fischer's. The bottom layers were used within 2 and 9 days of preparation. Plated dishes (bottom layer of agar, upper layer of cells and administered drug were incubated in humidified atmosphere at 37° C., 5% CO2 for 10-20 days depending upon the time necessary to observe adequate colonies (defined as a cell aggregate of more than 50 cells) both control and drug inhibited. Drugs were administered on a paper filter disk (Whatman No. 1) of 6.5 mm diameter placed on the upper layer at 1/3 distance from the edge of the dish. The anti-clonogenic activity of the compounds was measured as the zone of inhibition from the disk edge to the most proximal colonies. This zone of inhibition was checked on an inverted microscope (40×) and was measured with a micrometer mounted in the eyepiece. The ocular micrometer was calibrated with a stage micrometer set for a particular combination of ocular and objective lenses. […] We made a modification of the initial technique by not plating a solid tumor and a leukemia simultaneously in the same Petri dish. […] HUMAN TUMORS. […] LS180 (13) and BE1(14) were obtained from the Oncology Dept. of the Montreal General Hospital. […] Cell lines were routinely passaged twice a week by trypsinization and maintained in 25, or 75-sq. cm Falcon Plastic flasks at 37° C., 5% CO2 in humidified atmosphere. Both compounds were dissolved in DMSO (1 mg/100 ul) and brought to final volume (250 ul) with Millipore deionized sterile water. Further dilutions were made with […] volume of 25 ul of freshly prepared solution was placed on the filter disk and allowed to dry.

MCF7/ADR = assay: Soft agar colony formation disk diffusion assay; type: cell-based, human
Description: (§2) A more elaborate version of this fundamental assay, the soft agar colony formation disk diffusion assay was used. This assay defines the relative activity of one particular drug versus a tumoral cell line type. The effect of the test drug against tumoral cells could be measured by its inhibitory capacity against colony formation after the delivery of the compound, in different concentrations on an filter disk(4). A modified technique of this assay was used in order to investigate the antiproliferative activity of candidate compounds. Tumoral cells from solid tumors and ascitic lines were plated separately in a two layer agar matrix. Cell lines to be tested were suspended in an upper layer of 0.4% Noble agar (Difco#00142-01) in RPMI-1066 (Gibco#3201875) at a yield varying between 10^4 to 2×10^5 cells per 60 mm Petri dish. Plating efficiency was determined for each line in order to achieve an optimal number of colonies per dish. Plates were examined before drug administration to confirm a uniform dispersion of single cells. The bottom layer consisted of 0.8% Noble agar, 0.8% Tryptic Soy Broth (difco#0037001)in CMRL-1066/Fischer's. The bottom layers were used within 2 and 9 days of preparation. Plated dishes (bottom layer of agar, upper layer of cells and administered drug were incubated in humidified atmosphere at 37° C., 5% CO2 for 10-20 days depending upon the time necessary to observe adequate colonies (defined as a cell aggregate of more than 50 cells) both control and drug inhibited. Drugs were administered on a paper filter disk (Whatman No. 1) of 6.5 mm diameter placed on the upper layer at 1/3 distance from the edge of the dish. The anti-clonogenic activity of the compounds was measured as the zone of inhibition from the disk edge to the most proximal colonies. This zone of inhibition was checked on an inverted microscope (40×) and was measured with a micrometer mounted in the eyepiece. The ocular micrometer was calibrated with a stage micrometer set for a particular combination of ocular and objective lenses. […] We made a modification of the initial technique by not plating a solid tumor and a leukemia simultaneously in the same Petri dish. Anti-clonogenic tests performed on leukemia cell line have helped in the discovery of the majority of current clinically used cytostatic drugs. Our tests on solid tumor lines (animal or human) may help define active compounds with solid tumor specificity. […] HUMAN TUMORS. […] LS180 (13) and BE1(14) were obtained from the Oncology Dept. of the Montreal General Hospital. […] Cell lines were routinely passaged twice a week by trypsinization and maintained in 25, or 75-sq. cm Falcon Plastic flasks at 37° C., 5% CO2 in humidified atmosphere. Both compounds were dissolved in DMSO (1 mg/100 ul) and brought to final volume (250 ul) with Millipore deionized sterile water. Further dilutions were made with […] volume of 25 ul of freshly prepared solution was placed on the filter disk and allowed to dry.

MCF7 = assay: Soft agar colony formation disk diffusion assay; type: cell-based, human
Description: as §2

LS180 = assay: Soft agar colony formation disk diffusion assay; type: cell-based, human
Description: as §2

MATB/ADR = assay: Soft agar colony formation disk diffusion assay; type: cell-based, rat
Description: as §1

MATB.WT = assay: Soft agar colony formation disk diffusion assay; type: cell-based, rat
Description: as §1

tumor cell lines = assay: Tumor clonogenic assay, overall; type: cell-based
Description: For the IN VITRO test, we chose a tumor clonogenic assay which measures the ability of tumoral cells to form colonies (multicellular growth units) as a result of cell division in semisolid agar support (2,3). A more elaborate version of this fundamental assay, the soft agar colony formation disk diffusion assay was used. This assay defines the relative activity of one particular drug versus a tumoral cell line type. The effect of the test drug against tumoral cells could be measured by its inhibitory capacity against colony formation after the delivery of the compound, in different concentrations on an filter disk(4).
A modified technique of this assay was used in order to investigate the antiproliferative activity of candidate compounds. Tumoral cells from solid tumors and ascitic lines were plated separately in a two layer agar matrix. Cell lines to be tested were suspended in an upper layer of 0.4% Noble agar (Difco#00142-01) in RPMI-1066 (Gibco#3201875) at a yield varying between 10^4 to 2×10^5 cells per 60 mm Petri dish. Plating efficiency was determined for each line in order to achieve an optimal number of colonies per dish. Plates were examined before drug administration to confirm a uniform dispersion of single cells. The bottom layer consisted of 0.8% Noble agar, 0.8% Tryptic Soy Broth (difco#0037001)in CMRL-1066/Fischer's. The bottom layers were used within 2 and 9 days of preparation. Plated dishes (bottom layer of agar, upper layer of cells and administered drug were incubated in humidified atmosphere at 37° C., 5% CO2 for 10-20 days depending upon the time necessary to observe adequate colonies (defined as a cell aggregate of more than 50 cells) both control and drug inhibited. Drugs were administered on a paper filter disk (Whatman No. 1) of 6.5 mm diameter placed on the upper layer at 1/3 distance from the edge of the dish. The anti-clonogenic activity of the compounds was measured as the zone of inhibition from the disk edge to the most proximal colonies. This zone of inhibition was checked on an inverted microscope (40×) and was measured with a micrometer mounted in the eyepiece. The ocular micrometer was calibrated with a stage micrometer set for a particular combination of ocular and objective lenses.
200 units of activity are equivalent to 6.5 mm distance from the disk edge to the first colonies (5). […] We made a modification of the initial technique by not plating a solid tumor and a leukemia simultaneously in the same Petri dish. Anti-clonogenic tests performed on leukemia cell line have helped in the discovery of the majority of current clinically used cytostatic drugs. Our tests on solid tumor lines (animal or human) may help define active compounds with solid tumor specificity. This specific activity would be indicated by a higher level of cloning inhibition in solid tumors versus leukemias (6).

`COCOCC(=O)C1CC2=C(CO1)C(=O)c1c(cc3ccccc3c1O)C2=O` (stereo not shown) [BCH-714, 3-(2-methoxymethoxy)aceto-11-hydroxy-1,2,3,4-tetrahydro-(2-oxygen)-napthacene-5,12-dione] was tested, and the zone of inhibition (M5076; 10 μg/DISK) was 15.5 ± 5.0 Zone Units, the zone of inhibition (M5076; 100 μg/DISK) was 55.0 ± 8.4 Zone Units and the zone of inhibition (P388; 10 μg/DISK) was 0 Zone Units. It also gave a zone of inhibition (P388; 100 μg/DISK) of 27.0 ± 4.2 Zone Units, a zone of inhibition (P388/ADR; 10 μg/DISK) of 0 Zone Units and a zone of inhibition (P388/ADR; 100 μg/DISK) of 0 Zone Units. The zone of inhibition (B16; 10 μg/DISK) was 0 Zone Units, the zone of inhibition (B16; 100 μg/DISK) was 0 Zone Units and the zone of inhibition (HT29; 10 μg/DISK) was 0 Zone Units. The zone of inhibition (HT29; 100 μg/DISK) was 0 Zone Units, the zone of inhibition (MCF7/ADR; 10 μg/DISK) was 0 Zone Units and the zone of inhibition (MCF7/ADR; 100 μg/DISK) was 0 Zone Units. For the same compound, the zone of inhibition (MCF7; 10 μg/DISK) was 0 Zone Units, the zone of inhibition (MCF7; 100 μg/DISK) was 0 Zone Units and the zone of inhibition (LS180; 10 μg/DISK) was 9.0 ± 4.2 Zone Units. For the same compound, the zone of inhibition (LS180; 100 μg/DISK) was 42.0 ± 26.0 Zone Units, the zone of inhibition (MATB/ADR; 10 μg/DISK) was 0 Zone Units and the zone of inhibition (MATB/ADR; 100 μg/DISK) was 0 Zone Units. The zone of inhibition (MATB.WT; 10 μg/DISK) was 0 Zone Units and the zone of inhibition (MATB.WT; 100 μg/DISK) was 0 Zone Units.

For `COC(=O)[C@H]1CC2=C(C(=O)c3cc4ccccc4c(O)c3C2=O)[C@H](O[C@H]2C[C@H](NC(=O)C(F)(F)F)[C@H](O)[C@H](C)O2)O1` [BCH-706], the “cross resistance with adriamycin, MCF7/ADR vs MCF7” value (MCF7/ADR) was “lack of cross resistance with adriamycin”, the zone of inhibition (MCF7/ADR; 10 μg/DISK) was 91.5 ± 8.6 Zone Units and the zone of inhibition (MCF7/ADR; 100 μg/DISK) was 183.0 Zone Units. For the same compound, the zone of inhibition (MCF7; 10 μg/DISK) was 103.7 ± 25.5 Zone Units, the zone of inhibition (MCF7; 100 μg/DISK) was 213.5 ± 43.1 Zone Units and the “activity and specificity in words” value (tumor cell lines) was “most active”.

With `CCOC(=O)C1Cc2c(O)c3c(c(O)c2CS1)C(=O)c1ccccc1C3=O` (stereo not shown) [BCH-713, 3-carbethoxy-5,12-dihydroxy-1,2,3,4-tetrahydro-(2-sulfur)naphthacene-6,11-dione] the zone of inhibition (M5076; 10 μg/DISK) was 0 Zone Units, the zone of inhibition (M5076; 100 μg/DISK) was 42.7 ± 8.6 Zone Units and the zone of inhibition (P388; 10 μg/DISK) was 0 Zone Units. The zone of inhibition (P388; 100 μg/DISK) was 45.7 ± 21.5 Zone Units, the zone of inhibition (P388/ADR; 10 μg/DISK) was 0 Zone Units and the zone of inhibition (P388/ADR; 100 μg/DISK) was 61.0 ± 0.0 Zone Units. For the same compound, the zone of inhibition (B16; 10 μg/DISK) was 0 Zone Units, the zone of inhibition (B16; 100 μg/DISK) was 24.4 ± 8.6 Zone Units and the zone of inhibition (HT29; 10 μg/DISK) was 0 Zone Units. For the same compound, the zone of inhibition (HT29; 100 μg/DISK) was 0 Zone Units, the zone of inhibition (MCF7/ADR; 10 μg/DISK) was 24.0 ± 8.6 Zone Units and the zone of inhibition (MCF7/ADR; 100 μg/DISK) was 94.5 ± 64.7 Zone Units. It also gave a zone of inhibition (MCF7; 10 μg/DISK) of 0 Zone Units, a zone of inhibition (MCF7; 100 μg/DISK) of 0 Zone Units and a zone of inhibition (LS180; 10 μg/DISK) of 0 Zone Units. It also gave a zone of inhibition (LS180; 100 μg/DISK) of 45.7 ± 21.5 Zone Units, a zone of inhibition (MATB/ADR; 10 μg/DISK) of 0 Zone Units and a zone of inhibition (MATB/ADR; 100 μg/DISK) of 0 Zone Units. For the same compound, the zone of inhibition (MATB.WT; 10 μg/DISK) was 0 Zone Units and the zone of inhibition (MATB.WT; 100 μg/DISK) was 27.4 ± 4.3 Zone Units.

Source: patent US5593970A, “Heterocyclic anthracycline analogs” (priority 1994, dated 1997)
